Data on nine substances can be found in patent publication US10919941B2, “Functional lipid constructs” (KODE BIOTECH LIMITED, priority 2007, dated 2021).

No end group written: not given here.

Format in all cases: cell-based, human
Test [1] deals with sera reactive with modified RBCs. Briefly: Neutralisation of reactive sera with free peptide, retested against modified RBCs (BioVue). Further details: key: 0 or ‘−’ no agglutination; 0 or ‘−’ no agglutination; 1+ or 3=very weak agglutination; 1+ or 3=very weak agglutination; 2+ or 5=weak agglutination; 2+ or 5=weak agglutination; 3+ or 8=moderate strong agglutination; 3+ or 8=moderate strong agglutination; 4+ or 10/12=strong agglutination; 4+ or 10/12=strong agglutination; 4+ or 10/12=strong agglutination. The settings on record: 40 μl plasma + 10 μl neutraliser 1.0 mg/ml, 30 minutes 37° C.; for Post-neutralisation serology, PAC74 / Post-neutralisation serology, TAP1: cells modified with M22. From the text:
Optionally, where F is a peptide, the method includes the preliminary step of: • Adding an amount of the peptide to the sample of the serum; where the amount of the peptide is sufficient to neutralize non-specific agglutination or confirm specificity of the reactive antibody.

Test [2] relates to Miltenberger antibody positive sera. Briefly: BioVue AHG card column agglutination serology of modified red blood cells. Further details: key: 0 or ‘−’ no agglutination; 0 or ‘−’ no agglutination; 1+ or 3=very weak agglutination; 1+ or 3=very weak agglutination; 2+ or 5=weak agglutination; 2+ or 5=weak agglutination; 3+ or 8=moderate strong agglutination; 3+ or 8=moderate strong agglutination; 4+ or 10/12=strong agglutination; 4+ or 10/12=strong agglutination; 4+ or 10/12=strong agglutination. The conditions noted are these: construct 50 μg/ml. As to the method: (§1) Red blood cells are modified by mixing 1 part by volume of washed packed red blood cells with 1 part by volume of peptide-lipid construct dispersed at a concentration of 10 to 1000 pg/ml in cell media (Celpresol™).
(§2) The suspensions are either: • 1. incubated for 2 hours at 37° C. before being washed and suspended in a cell medium for serological analysis at a concentration of 0.8 to 3% (Method 1); or • 2. incubated for 3 to 4 hours at room temperature (circa 25° C.) followed by 18 hours at 4° C. before being washed and suspended in a cell medium for serological analysis at a concentration of 0.8 to 3% (Method 2).
(§3) Serological reactions are graded or scored by either of two established systems (0 or ‘−’ no agglutination, 1+ or 3=very weak agglutination, 2+ or 5=weak agglutination, 3+ or 8=moderate strong agglutination, 4+ or 10/12=strong agglutination)
(§4) Serological platforms used are Tube (addition of reagents and reactants into plastic or glass serology tubes and after appropriate incubations, washing and centrifugation observing reactions macroscopically by eye and a 10× magnification eyepiece and scoring) and BioVue™ (addition of reactants into cassettes containing beads (including some reactants) and after appropriate incubations and centrifugation observing the reaction patterns trapped within the Gel matrix). BioVue is the serological column agglutination platform of Ortho-Clinical Diagnostics. Diamed is the serological column agglutination platform of Diamed AG.

For test [3], the system named is antibody negative serums. Description: False positive reactions of modified RBCs with antibody negative serums/plasma. Further details: key to Reaction score BioVue AHG, PAC samples 1-46, 49, 50, 52, 53 / Reaction score BioVue AHG, PAC sample 47 / Reaction score BioVue AHG, PAC sample 48 / Reaction score BioVue AHG, PAC sample 51 / agglutination score, T series serum 2 / agglutination score, T series serum 42 / agglutination score, T series serum 63 / agglutination score, T series serum 62 / agglutination score, T series serum 7 / agglutination score, T series serum 20 / agglutination score, T series serum 48 / agglutination score, T series serum 22 / agglutination score, T series serum 39 / agglutination score, T series serum 23 / agglutination score, T series serum 30 / agglutination score, T series serum 4 / agglutination score, T series serum 31 / agglutination score, T series serum 44 / agglutination score, T series serum 61 / agglutination score, T series serum 18 / agglutination score, T series serum 21 / agglutination score, T series serum 28 / agglutination score, T series serum 55 / agglutination score, false positive serum T18 / agglutination score, false positive serum T21 / agglutination score, false positive serum T28 / agglutination score, false positive serum T55 / agglutination score, false positive serum T78 / agglutination score, false positive serum T92: 0 or ‘−’ no agglutination; 0 or ‘−’ no agglutination; 1+ or 3=very weak agglutination; 1+ or 3=very weak agglutination; 2+ or 5=weak agglutination; 2+ or 5=weak agglutination; 3+ or 8=moderate strong agglutination; 3+ or 8=moderate strong agglutination; 4+ or 10/12=strong agglutination; 4+ or 10/12=strong agglutination; 4+ or 10/12=strong agglutination.

Test [4] deals with Miltenberger Antibody Positive Panel. Description: Reactivity of modified RBCs against the Miltenberger Antibody Positive Panel. Further details: key to score vs panel 15 TAP2 / score vs panel 4 T7202 / score vs panel 8 T5896 / score vs panel 2 T217 / score vs panel 3 T165 / score vs panel 14 TAP1 / score vs panel 10 Mia / score vs panel 11 Mur / score vs panel 12 Gam / score vs panel 6 T6025 / score vs panel 7 T8445 / score vs panel 9 MIII / score vs panel 13 BoxH / reactivity with Panel Serum #7 (T8445) / agglutination score, Panel Serum #7 (T8445): 0 or ‘−’ no agglutination; 0 or ‘−’ no agglutination; 1+ or 3=very weak agglutination; 1+ or 3=very weak agglutination; 2+ or 5=weak agglutination; 2+ or 5=weak agglutination; 3+ or 8=moderate strong agglutination; 3+ or 8=moderate strong agglutination; 4+ or 10/12=strong agglutination; 4+ or 10/12=strong agglutination; 4+ or 10/12=strong agglutination. The settings on record: for score vs panel 2 T217 / score vs panel 4 T7202 / score vs panel 7 T8445 / score vs panel 8 T5896 / score vs panel 15 TAP2 / score vs panel 3 T165 / score vs panel 6 T6025 / score vs panel 9 MIII / score vs panel 10 Mia / score vs panel 11 Mur / score vs panel 12 Gam: Table 9; for agglutination score, Panel Serum #7 (T8445): cells modified at 50 μg/ml, 2 hour 37° C., BioVue AHG cards; for reactivity with Panel Serum #7 (T8445): construct 50 μg/ml (2 hours, 37° C.). As for the experimental part: as §1, §2, §3, §4

The mark [5] stands for this setting: head: cells modified with the peptide-lipid construct M22 (title: M28).
Setting [6] is: blood donor plasma, construct 50 μg/ml (2 hours, 37° C.).
[7] abbreviates: larger series = 102, cells modified at 50 μg/ml, 2 hour 37° C., BioVue AHG cards.

In the case of VMYASSG?, in test [1], the “Post-neutralisation serology, PAC74” value is reported as 8 and the “Post-neutralisation serology, TAP1” value stood at 8. In addition, in test [1] (setting [5]), the “Post-neutralisation serology, PAC70” value amounted to 8; the “Post-neutralisation serology, PAC71” value is reported as 5; the “Post-neutralisation serology, PAC72” value was 5; the “Post-neutralisation serology, TAP2” value is listed as 8.
For the substance M28 peptide (TYPAHTANEC), in test [1], the “Post-neutralisation serology, PAC74” value came out at 8 and the “Post-neutralisation serology, TAP1” value was determined as 8. In test [1] (setting [5]), the “Post-neutralisation serology, TAP2” value is 8.
For “M41: DOPE peptide-lipid construct: Hil peptide ETGETGQLVH, leader c, spacer CMG(2) (ETGETGQLVHC; also: DOPE peptide-lipid construct via leader Cys, spacer CMG(2))”, in test [2], the “BioVue score vs TAP1” value was determined as 0, the “BioVue score vs positive sample 2 T217 (T)” value was found to be 0, the “BioVue score vs positive sample 3 T165 (Mur)” value worked out at 0 and the “BioVue score vs positive sample 4 T7202 (M)” value came out at 0. Besides, the “BioVue score vs positive sample 8 T5896 (M + K + Mur)” value in test [2] was 0.
Regarding M22 peptide (SQTNDKHKRDC), the “Post-neutralisation serology, PAC74” value in test [1] is listed as 8. In test [1] (setting [5]), the “Post-neutralisation serology, PAC70” value is given as 8 and the “Post-neutralisation serology, TAP2” value worked out at 3.
Take “M40: DOPE peptide-lipid construct: Hil peptide EEETGETGQL, leader c, spacer CMG(2) (EEETGETGQLC; also: DOPE peptide-lipid construct via leader Cys, spacer CMG(2))”: in test [2], the “BioVue score vs TAP1” value is 0, the “BioVue score vs positive sample 2 T217 (T)” value is on record as 0, the “BioVue score vs positive sample 3 T165 (Mur)” value was determined as 0 and the “BioVue score vs positive sample 4 T7202 (M)” value worked out at 0. Further, in test [2], the “BioVue score vs positive sample 8 T5896 (M + K + Mur)” value was 0. In test [3] (setting [6]), the “Reaction score BioVue AHG, PAC sample 47” value was found to be 0; the “Reaction score BioVue AHG, PAC sample 48” value is 0; the “Reaction score BioVue AHG, PAC sample 51” value is recorded as 0; the “Reaction score BioVue AHG, PAC samples 1-46, 49, 50, 52, 53” value amounted to 0. In test [3] (panel of blood donor plasma samples (PAC), BioVue AHG, construct 50 μg/ml), the “% False Positives” value is recorded as 0%.
As for “M31: DOPE peptide-lipid construct: Mur peptide YPAHTANEVS, leader c, spacer CMG(2) (YPAHTANEVSC; also: DOPE peptide-lipid construct via leader Cys, spacer CMG(2))”, in test [4] (construct 50 μg/ml), the “score vs panel 2 T217” value stood at 0, the “score vs panel 4 T7202” value was determined as 10, the “score vs panel 7 T8445” value is 8 and the “score vs panel 8 T5896” value is on record as 0. Besides, the “score vs panel 15 TAP2” value in test [4] (construct 50 μg/ml) amounted to 0. In addition, in test [4], the “agglutination score, Panel Serum #7 (T8445)” value (“agglutination score … (T8445)” for short) was determined as 8 and the “reactivity with Panel Serum #7 (T8445)” value stood at 8. In addition, in test [3] (setting [7]), the “agglutination score, false positive serum T21” value came out at 10; the “agglutination score, false positive serum T28” value came out at 12; the “agglutination score, false positive serum T78” value was 8; the “agglutination score, false positive serum T92” value is recorded as 12.
For “M19: DOPE peptide-lipid construct: Mur peptide PAHTANEV, leader c, spacer CMG(2) (PAHTANEVC; also: DOPE peptide-lipid construct via leader Cys, spacer CMG(2))”, in test [4] (construct 100 μg/ml), the “score vs panel 2 T217” value turned out to be 0, the “score vs panel 3 T165” value was determined as 10, the “score vs panel 4 T7202” value came out at 0 and the “score vs panel 6 T6025” value is listed as 8. Also, in test [4] (construct 100 μg/ml), the “score vs panel 7 T8445” value was 10, the “score vs panel 8 T5896” value worked out at 3, the “score vs panel 9 MIII” value is listed as 0 and the “score vs panel 10 Mia” value is 0. For the same substance, in test [4] (construct 100 μg/ml), the “score vs panel 11 Mur” value is 0 and the “score vs panel 12 Gam” value is given as 0. In test [4], the “agglutination score … (T8445)” value was determined as 8 and the “reactivity with Panel Serum #7 (T8445)” value is on record as 8. Further, the “agglutination score, false positive serum T55” value in test [3] (setting [7]) is given as 12.
“M26: DOPE peptide-lipid construct: Mur peptide YPAHTANEV, leader c, spacer CMG(2) (YPAHTANEVC; also: DOPE peptide-lipid construct via leader Cys, spacer CMG(2))”: in test [4] (construct 50 μg/ml), the “score vs panel 2 T217” value came to 0, the “score vs panel 3 T165” value amounted to 10, the “score vs panel 4 T7202” value is reported as 0 and the “score vs panel 6 T6025” value worked out at 8. Also, in test [4] (construct 50 μg/ml), the “score vs panel 7 T8445” value was 8, the “score vs panel 8 T5896” value is listed as 0, the “score vs panel 9 MIII” value was determined as 0 and the “score vs panel 10 Mia” value is listed as 0. Moreover, in test [4] (construct 50 μg/ml), the “score vs panel 11 Mur” value amounted to 0, the “score vs panel 12 Gam” value is on record as 0 and the “score vs panel 15 TAP2” value is listed as 3. In addition, in test [4], the “agglutination score … (T8445)” value stood at 10 and the “reactivity with Panel Serum #7 (T8445)” value is 10. Moreover, in test [3] (setting [7]), the “agglutination score, false positive serum T18” value stood at 5; the “agglutination score, false positive serum T21” value is 10; the “agglutination score, false positive serum T28” value came to 12; the “agglutination score, false positive serum T55” value worked out at 10. Besides, in test [3] (setting [7]), the “agglutination score, false positive serum T78” value came out at 10 and the “agglutination score, false positive serum T92” value came out at 12.
For the substance “M25: DOPE peptide-lipid construct: Mur peptide Tyr Pro Ala His Thr Ala Asn Gln, leader c, spacer CMG(2)”, in test [4] (construct 50 μg/ml), the “score vs panel 2 T217” value amounted to 0, the “score vs panel 3 T165” value was determined as 3, the “score vs panel 4 T7202” value came out at 0 and the “score vs panel 6 T6025” value is reported as 0. Besides, in test [4] (construct 50 μg/ml), the “score vs panel 7 T8445” value was determined as 3, the “score vs panel 8 T5896” value came out at 0, the “score vs panel 9 MIII” value is on record as 0 and the “score vs panel 10 Mia” value came out at 0. Further, in test [4] (construct 50 μg/ml), the “score vs panel 11 Mur” value amounted to 0, the “score vs panel 12 Gam” value worked out at 0 and the “score vs panel 15 TAP2” value was found to be 8. Also, in test [4], the “agglutination score … (T8445)” value worked out at 3 and the “reactivity with Panel Serum #7 (T8445)” value worked out at 3. The “agglutination score, false positive serum T78” value in test [3] (setting [7]) turned out to be 5.
